Reference: patent publication US5834461A, “Tricyclic benzazepine vasopressin antagonists” (American Cyanamid Company, priority 1997, dated 1998)
One block for each compound: values may come before it.

Key:
[1] = biological target: vasopressin V1 receptor (rat liver plasma membranes) (Rattus norvegicus, UniProt P30560); assay: Binding Assay to Rat Hepatic V1 Receptors; settings: for IC50: rat hepatic V1
[2] = biological target: T1, vasopressin V1 receptor subtype in human platelet membranes (Homo sapiens, UniProt P37288); assay: Binding to Vasopressin V1 Receptor Subtype in Human Platelet Membranes; settings: for IC50: human platelet V1 (*)
T1 construct: tissue Hudson Valley Blood Services; host or cells: human blood platelets (frozen platelet rich plasma)
Procedure: (a) Platelet Membrane Preparation:
Frozen platelet rich plasma (PRP), received from the Hudson Valley Blood Services, are thawed to room temperature. (Platelet Source: Hudson Valley Blood Services, Westchester Medical Center, Valhalla, N.Y.). The tubes containing the PRP are centrifuged at 16,000×g for 10 min. at 4° C. and the supernatant fluid discarded. The platelets resuspended in an equal volume of 50.0 mM Tris.HCl, pH 7.5 containing 120 mM NaCl and 20.0 mM EDTA. The suspension is recentrifuged at 16,000×g for 10 min. This washing step is repeated one more time. The wash discarded and the lysed pellets homogenized in low ionic strength buffer of Tris.HCl, 5.0 mM, pH 7.5 containing 5.0 mM EDTA. The homogenate is centrifuged at 39,000×g for 10 min. The resulting pellet is resuspended in Tris.HCl buffer, 70.0 mM, pH 7.5 and recentrifuged at 39,000×g for 10 min. The final pellet is resuspended in 50.0 mM Tris.HCl buffer pH 7.4 containing 120 mM NaCl and 5.0 mM KCl to give 1.0-2.0 mg protein per ml of suspension.
(b) Binding to Vasopressin V1 Receptor Subtype in Human Platelet Membranes:
In wells of a 96 well format microtiter plate, add 100 μl of 50.0 mM Tris.HCl buffer containing 0.2% BSA and a mixture of protease inhibitors (aprotinin, leupeptin etc.). Then add 20 μl of [^3 H]Ligand (Manning or Arg^8 Vasopressin), to give final concentrations ranging from 0.01 to 10.0 nM. Initiate the binding by adding 80.0 μl of platelet suspension (approx. 100 μg protein). Mix all reagents by pipetting the mixture up and down a few times. Non specific binding is measured in the presence of 1.0 μM of unlabeled ligand (Manning or Arg^8 Vasopressin). Let the mixture stand undisturbed at room temperature for ninety (90) min. Upon this time, rapidly filter off the incubate under vacuum suction over GF/B filters, using a Brandel Harvester. The radioactivity caught on the filter disks is determined by the addition of liquid scintillant and counting in a liquid scintillator.

[3] = test system: vasopressin V1; assay: Vasopressin V1 Antagonist Activity in Conscious Rats (vasopressin vasopressor response); assay type: in vivo, rat (spontaneously hypertensive rats); design: Average Change: unit not given here
How it was run: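 Conscious rats had the ventral caudal tail artery cannulated into the lower abdominal aorta under local procaine anesthesia, plus a caudal vein cannula for intravenous dosing. Pulsatile blood pressure was recorded via a Statham P23Db transducer. Vasopressor responses to vasopressin injections were measured before and after compound dosing, with percent antagonism calculated relative to the pre-drug response taken as 100%.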

[4] = 10 mg/kg i.v., VAS 0.01 i.u./kg, 30 min
[5] = 10 mg/kg i.v., VAS 0.05 i.u./kg, 30 min
[6] = 10 mg/kg i.v., VAS 0.1 i.u./kg, 30 min
[7] = 20 mg/kg i.v., VAS 0.01 i.u./kg, 60 min
[8] = 20 mg/kg i.v., VAS 0.01 i.u./kg, 300 min
[9] = 20 mg/kg i.v., VAS 0.05 i.u./kg, 60 min
[10] = 20 mg/kg i.v., VAS 0.05 i.u./kg, 90 min
[11] = 20 mg/kg i.v., VAS 0.05 i.u./kg, 120 min
[12] = 20 mg/kg i.v., VAS 0.05 i.u./kg, 180 min
[13] = 20 mg/kg i.v., VAS 0.05 i.u./kg, 240 min
[14] = 20 mg/kg i.v., VAS 0.05 i.u./kg, 300 min
[15] = 20 mg/kg i.v., VAS 0.1 i.u./kg, 60 min
[16] = 20 mg/kg i.v., VAS 0.1 i.u./kg, 90 min
[17] = 20 mg/kg i.v., VAS 0.1 i.u./kg, 120 min
[18] = 20 mg/kg i.v., VAS 0.1 i.u./kg, 180 min
[19] = 20 mg/kg i.v., VAS 0.1 i.u./kg, 240 min
[20] = 20 mg/kg i.v., VAS 0.1 i.u./kg, 300 min
[21] = 50 mg/kg p.o., VAS 0.01 i.u./kg, 30 min
[22] = 50 mg/kg p.o., VAS 0.01 i.u./kg, 60 min
[23] = 50 mg/kg p.o., VAS 0.01 i.u./kg, 90 min
[24] = 50 mg/kg p.o., VAS 0.01 i.u./kg, 120 min
[25] = 50 mg/kg p.o., VAS 0.01 i.u./kg, 180 min
[26] = 50 mg/kg p.o., VAS 0.01 i.u./kg, 240 min
[27] = 50 mg/kg p.o., VAS 0.02 i.u./kg, 30 min
[28] = 50 mg/kg p.o., VAS 0.02 i.u./kg, 60 min
[29] = 50 mg/kg p.o., VAS 0.02 i.u./kg, 90 min
[30] = 50 mg/kg p.o., VAS 0.02 i.u./kg, 120 min
[31] = 50 mg/kg p.o., VAS 0.02 i.u./kg, 180 min
[32] = 50 mg/kg p.o., VAS 0.02 i.u./kg, 240 min

Sequence of vasopressin V1 receptor (rat liver plasma membranes) (P30560 whole entry): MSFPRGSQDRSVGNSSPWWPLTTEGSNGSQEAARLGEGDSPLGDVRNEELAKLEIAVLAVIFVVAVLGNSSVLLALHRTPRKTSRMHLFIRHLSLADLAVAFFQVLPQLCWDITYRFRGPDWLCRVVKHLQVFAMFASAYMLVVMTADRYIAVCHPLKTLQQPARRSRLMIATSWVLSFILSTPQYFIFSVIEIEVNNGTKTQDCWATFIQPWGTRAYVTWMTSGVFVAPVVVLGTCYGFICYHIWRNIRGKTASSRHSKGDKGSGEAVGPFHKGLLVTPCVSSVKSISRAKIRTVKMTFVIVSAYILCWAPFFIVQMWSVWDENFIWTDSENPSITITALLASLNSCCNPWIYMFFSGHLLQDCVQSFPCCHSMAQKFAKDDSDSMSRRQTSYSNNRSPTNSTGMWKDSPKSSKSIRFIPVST
T1 sequence (P37288 whole entry): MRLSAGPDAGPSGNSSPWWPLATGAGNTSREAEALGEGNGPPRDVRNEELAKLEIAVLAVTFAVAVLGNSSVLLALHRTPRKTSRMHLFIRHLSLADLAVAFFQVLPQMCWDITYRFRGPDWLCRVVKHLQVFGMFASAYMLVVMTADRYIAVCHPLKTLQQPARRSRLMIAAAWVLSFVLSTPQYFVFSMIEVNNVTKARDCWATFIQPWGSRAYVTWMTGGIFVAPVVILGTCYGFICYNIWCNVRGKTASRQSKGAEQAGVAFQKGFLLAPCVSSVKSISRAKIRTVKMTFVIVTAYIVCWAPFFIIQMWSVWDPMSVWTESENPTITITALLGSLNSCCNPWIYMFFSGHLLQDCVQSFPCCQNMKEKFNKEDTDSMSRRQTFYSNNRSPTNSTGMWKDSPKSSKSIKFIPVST

Structure (SMILES): COc1cc(C(=O)N2Cc3ccccc3Cc3ccccc32)ccc1NC(=O)c1cc(F)ccc1C [Example 261, N-[4-[(6,11-Dihydro-5H-dibenz[b,e]azepin-5-yl)-carbonyl]-2-methoxyphenyl]-2-methyl-5-fluorobenzamide]
- MAX % Inhibition ([3]; 10 mg/kg i.v.): 74%
- Time of max % inhibition ([3]; 10 mg/kg i.v.): 60 min
- IC50 [2]: 21 nM

Structure (SMILES): Cc1ccccc1C(=O)Nc1ccc(C(=O)N2Cc3ccccc3-c3ccccc32)cc1 [Example 5, 2-Methyl-N-[4-[(5(6H)-phenanthridinyl)carbonyl]phenyl]benzamide]
- Average Change [3, 4]: 35
- Inhibition [3, 4]: 22%
- Average Change [3, 5]: 30
- Inhibition [3, 5]: -9%
- Average Change [3, 6]: 35
- Inhibition [3, 6]: 22%
- Average Change [3, 7]: 17.5
- Inhibition [3, 7]: 61%
- Average Change [3, 8]: 30
- Inhibition [3, 8]: 33%
- Average Change [3, 9]: 10
- Inhibition [3, 9]: 64%
- Average Change [3, 10]: 10
- Inhibition [3, 10]: 64%
- Average Change [3, 11]: 15
- Inhibition [3, 11]: 45%
- Average Change [3, 12]: 12.5
- Inhibition [3, 12]: 55%
- Average Change [3, 13]: 17.5
- Inhibition [3, 13]: 36%
- Average Change [3, 14]: 22.5
- Inhibition [3, 14]: 18%
- Average Change [3, 15]: 17.5
- Inhibition [3, 15]: 61%
- Average Change [3, 16]: 20
- Inhibition [3, 16]: 56%
- Average Change [3, 17]: 17.5
- Inhibition [3, 17]: 61%
- Average Change [3, 18]: 20
- Inhibition [3, 18]: 56%
- Average Change [3, 19]: 25
- Inhibition [3, 19]: 44%
- Average Change [3, 20]: 30
- Inhibition [3, 20]: 33%
- Average Change [3, 21]: 22.5
- Inhibition [3, 21]: 10%
- Average Change [3, 22]: 30
- Inhibition [3, 22]: -20%
- Average Change [3, 23]: 17.5
- Inhibition [3, 23]: 30%
- Average Change [3, 24]: 30
- Inhibition [3, 24]: -20%
- Average Change [3, 25]: 20
- Inhibition [3, 25]: 20%
- Average Change [3, 26]: 22.5
- Inhibition [3, 26]: 10%
- Average Change [3, 27]: 35
- Inhibition [3, 27]: 0%
- Average Change [3, 28]: 35.5
- Inhibition [3, 28]: 7%
- Average Change [3, 29]: 32.5
- Inhibition [3, 29]: 7%
- Average Change [3, 30]: 40
- Inhibition [3, 30]: -14%
- Average Change [3, 31]: 37.5
- Inhibition [3, 31]: -7%
- Average Change [3, 32]: 38.5
- Inhibition [3, 32]: -10%
- IC50 [1]: 56 nM

Structure (SMILES): O=C(Nc1ccc(C(=O)N2Cc3ccccc3Cc3ccccc32)cc1)c1cc(Cl)cc(Cl)c1 [Example 251, N-(4-[(6,11-Dihydro-5H-dibenz[b,e]azepin-5-yl)-carbonyl]phenyl]-3,5-dichlorobenzamide]
- MAX % Inhibition ([3]; 30 mg/kg i.v.): 41%
- Time of max % inhibition ([3]; 30 mg/kg i.v.): 60 min
- IC50 [1]: 1500 nM

Structure (SMILES): Cc1cc(C(=O)N2Cc3ccccc3Cc3ccccc32)cc(C)c1NC(=O)c1ccc(Cl)cc1Cl [Example 259, N-[4-[(6,11-Dihydro-5H-dibenz[b,e]azepin-5-yl)-carbonyl]-2,6-dimethylphenyl]-2 4-dichlorobenzamide]
- MAX % Inhibition ([3]; 30 mg/kg i.v.): 29%
- Time of max % inhibition ([3]; 30 mg/kg i.v.): 90 min
- IC50 [1]: 4000 nM

Structure (SMILES): Cc1ccccc1C(=O)Nc1c(C)cc(C(=O)N2Cc3ccccc3Cc3ccccc32)cc1C [Example 258, N-[4-[(6,11-Dihydro-5H-dibenz[b,e]azepin-5-yl)-carbonyl]-2,6-dimethylphenyl]-2-methylbenzamide]
- MAX % Inhibition ([3]; 30 mg/kg i.v.): 61%
- Time of max % inhibition ([3]; 30 mg/kg i.v.): 60 min
- inhibition at 10 µM ([1]; 2 h, 10 μM, rat hepatic, read-out: V1, % at concentration in brackets): 75%

Structure (SMILES): Cc1c(F)cccc1C(=O)Nc1ccc(C(=O)N2Cc3ccccc3Cc3ccccc32)cc1Cl [Example 262, N-[4-[(6,11-Dihydro-5H-dibenz[b,e]azepin-5-yl)-carbonyl]-2-chlorophenyl]-2-methyl-3-fluorobenzamide]
- IC50 [2]: 620 nM

Structure (SMILES): O=C(Nc1ccc(C(=O)N2Cc3ccccc3Cc3ccccc32)cc1)c1cccc(Cl)c1Cl [Example 253, N-[4-[(6,11-Dihydro-5H-dibenz[b,e]azepin-5-yl)-carbonyl]phenyl]-2,3-dichlorobenzamide]
- MAX % Inhibition ([3]; 30 mg/kg i.v.): 57%
- Time of max % inhibition ([3]; 30 mg/kg i.v.): 180 min
- IC50 [1]: 310 nM

Structure (SMILES): COc1cc(C(=O)N2Cc3ccccc3Cc3ccccc32)ccc1NC(=O)c1ccccc1C [Example 257, N-[4-[(6,11-Dihydro-5H-dibenz[b,e]azepin-5-yl)-carbonyl]-2-methoxyphenyl]-2-methylbenzamide]
- MAX % Inhibition ([3]; 10 mg/kg i.v.): 71%
- Time of max % inhibition ([3]; 10 mg/kg i.v.): 60 min
- IC50 [2]: 16 nM

The next lines start with results.

- IC50 [1]: 39 nM
- IC50 [2]: 28 nM
Structure (SMILES): Cc1ccc(F)cc1C(=O)Nc1ccc(C(=O)N2CCc3c[nH]nc3-c3ccccc32)cc1 [Example 584, N-[4-[(4.5-Dihydropyrazolo[4,3-d][1]benzazepin-6(2H)-yl)carbonyl]phenyl]-5-fluoro-2-methylbenzamide]

- IC50 [2]: 250 nM
Structure (SMILES): Cc1nc2c(s1)CCN(C(=O)c1ccc(NC(=O)c3ccc(Cl)cc3Cl)cc1)c1ccccc1-2 [Example 455, N-[4-(4,5-Dihydro-2-methyl-6H-thiazolo[5,4-d][1]-benzazepin-6-yl)carbonyl1phenyl]-2,4-dichlorobenzamide]
- MAX % Inhibition ([3]; 30 mg/kg i.v.): 46%
- Time of max % inhibition ([3]; 30 mg/kg i.v.): 120 min

- inhibition at 10 µM ([2]; 1.5 h, 10 μM, human platelet (*), read-out: *V1, % at concentration in brackets): 14%
Structure (SMILES): CC(C)COc1ccc([N+](=O)[O-])cc1C(=O)Nc1ccc(C(=O)N2Cc3ccccc3Cc3ccccc32)cc1 [Example 453]

- IC50 [1]: 740 nM
- IC50 [2]: 150 nM
Structure (SMILES): Cc1ccc(F)cc1C(=O)Nc1ccc(C(=O)N2CCc3c[nH]nc3-c3ccccc32)c(Cl)c1 [Example 581]

- IC50 [2]: 90 nM
Structure (SMILES): Cc1nc2c(s1)CCN(C(=O)c1ccc(NC(=O)c3cc(F)ccc3C)cc1)c1ccccc1-2 [Example 534]

- IC50 [2]: 430 nM
Structure (SMILES): COc1cc(C(=O)N2Cc3ccccc3Cc3ccccc32)ccc1NC(=O)c1ccc(Cl)cc1Cl [Example 263, N-[4-[(6,11-Dihydro-5H-dibenz[b,e]azepin-5-yl)-carbonyl]-2-methoxyphenyl]-2,4-dichlorobenzamide]
- MAX % Inhibition ([3]; 10 mg/kg i.v.): 55%
- Time of max % inhibition ([3]; 10 mg/kg i.v.): 90 min

- IC50 [1]: 73 nM
Structure (SMILES): O=C(Nc1ccc(C(=O)N2Cc3ccccc3Sc3ccccc32)cc1)c1ccccc1Cl [Example 448, N-[4-[(Dibenz[b,f][1,4]thiazepin-10(11H)yl)-carbonyl]phenyl]-2-chlorobenzamide]
- MAX % Inhibition ([3]; 30 mg/kg i.v.): 60%
- Time of max % inhibition ([3]; 30 mg/kg i.v.): 90 min
